Laboratory results taken from article PMC12564265, “Navigating the Deep Eutectic Solvent Landscape: Experimental and Machine Learning Solubility Explorations of Syringic, p-Coumaric, and Caffeic Acids” (International Journal of Molecular Sciences, 2025).
“And” between values parts separate entries of the source, which are not always exact repeats. Equal entries are not always repeated.

Assays:
[1] = Shake-flask solubility with spectrophotometric measurement in aqueous DES mixtures; type: physicochemical
Method: (§1) In order to determine the solubility of the three studied phenolic acids in deep eutectic solvents, a very well-established shake-flask method coupled with spectrophotometric measurements was utilized. The initial procedure involved the preparation of various DESs, which was conducted by mixing their HBA and HBD counterparts in a glass vessel and heating the composition until the formation of a transparent, uniform liquid. […] For additional measurements, the DESs were mixed with water in varying proportions, creating aqueous DES systems. Saturated solutions of CAF, SYR, and COU were obtained by adding excess amounts of these compounds to test tubes containing either a neat deep eutectic solvent or its aqueous solution. Such samples were placed in the Orbital Shaker Incubator ES-20/60 from Biosan (Riga, Latvia) and heated for 24 h at 25 °C, 30 °C, 35 °C, and 40 °C (±0.1 °C) with simultaneous mixing at 60 rpm. Before measurements, the samples were filtered using a PTFE syringe filter from Qpore (Dallas, TX, USA) with a 0.22 μm pore size. In order to avoid possible precipitation of the saturated solutions at decreased temperatures, the test tubes, syringes, pipette tips, and filters were kept at a temperature identical to that of the samples. The spectrophotometric measurements required the preparation of calibration curves for the three APIs. This involved the preparation of a stock solution of each compound in methanol, which was later successfully diluted, and the obtained solutions of varying concentrations were measured using an A360 spectrophotometer from AOE Instruments (Shanghai, China). The wavelength range was set to 200-500 nm, and the resolution was 1 nm. The analytical wavelengths were determined to be 324 nm for caffeic acid, 273 nm for syringic acid, and 308 nm for p-coumaric acid. The final regression equations, obtained after averaging three distinct sets of measurements, are collected in Table 2 together with determination coefficients and limits of detection (LOD) and quantification (LOQ) for the calibration curves. The measurements of the samples were conducted with the same spectrophotometer and identical settings. Methanol was used for the dilution of the samples so that they could remain within the linearity range of the method. Complete spectra of the samples were recorded, but for the solubility determination, the absorbance values at a specific analytical wavelength were considered. These values were combined with the corresponding regression equations of the calibration curves and served for the calculation of the concentration of the three phenolic acids in the studied samples. The densities of such samples were also measured, and for this task 1 mL of each sample was weighed to a precision of 0.1 mg using an AS 110 R2.PLUS analytical balance from […] (Radom, Poland). The obtained densities enabled the calculation of mole fractions of CAF, SYR, and COU dissolved in the studied DESs. For each considered system, three distinct measurements were conducted, and the results were averaged.

[2] = Shake-flask solubility with spectrophotometric measurement in neat deep eutectic solvents; type: physicochemical
Method: as §1

Mole fraction solubility ([1]; ChCl – TEG 1:2 + water, x*DES 0.3, 35°C): 0.0649±0.0005 mole fraction | Mole fraction solubility ([1]; ChCl – TEG 1:2 + water, x*DES 0.3, 40°C): 0.0862±0.0009 mole fraction | Mole fraction solubility ([1]; ChCl – TEG 1:2 + water, x*DES 0.4, 25°C): 0.0512±0.0003 mole fraction | Mole fraction solubility ([1]; ChCl – TEG 1:2 + water, x*DES 0.4, 30°C): 0.0664±0.0007 mole fraction | Mole fraction solubility ([1]; ChCl – TEG 1:2 + water, x*DES 0.4, 35°C): 0.0861±0.0005 mole fraction | Mole fraction solubility ([1]; ChCl – TEG 1:2 + water, x*DES 0.4, 40°C): 0.1133±0.0008 mole fraction | Mole fraction solubility ([1]; ChCl – TEG 1:2 + water, x*DES 0.5, 25°C): 0.0632±0.0004 mole fraction | Mole fraction solubility ([1]; ChCl – TEG 1:2 + water, x*DES 0.5, 30°C): 0.0790±0.0006 mole fraction | Mole fraction solubility ([1]; ChCl – TEG 1:2 + water, x*DES 0.5, 35°C): 0.1033±0.0010 mole fraction | Mole fraction solubility ([1]; ChCl – TEG 1:2 + water, x*DES 0.5, 40°C): 0.1413±0.0012 mole fraction | Mole fraction solubility ([1]; ChCl – TEG 1:2 + water, x*DES 0.6, 25°C): 0.0774±0.0005 mole fraction | Mole fraction solubility ([1]; ChCl – TEG 1:2 + water, x*DES 0.6, 30°C): 0.0946±0.0004 mole fraction | Mole fraction solubility ([1]; ChCl – TEG 1:2 + water, x*DES 0.6, 35°C): 0.1258±0.0012 mole fraction | Mole fraction solubility ([1]; ChCl – TEG 1:2 + water, x*DES 0.6, 40°C): 0.1692±0.0013 mole fraction | Mole fraction solubility ([1]; ChCl – TEG 1:2 + water, x*DES 0.7, 25°C): 0.0885±0.0008 mole fraction | Mole fraction solubility ([1]; ChCl – TEG 1:2 + water, x*DES 0.7, 30°C): 0.1119±0.0007 mole fraction | Mole fraction solubility ([1]; ChCl – TEG 1:2 + water, x*DES 0.7, 35°C): 0.1523±0.0007 mole fraction | Mole fraction solubility ([1]; ChCl – TEG 1:2 + water, x*DES 0.7, 40°C): 0.2060±0.0014 mole fraction | Mole fraction solubility ([1]; ChCl – TEG 1:2 + water, x*DES 0.8, 25°C): 0.1016±0.0009 mole fraction | Mole fraction solubility ([1]; ChCl – TEG 1:2 + water, x*DES 0.8, 30°C): 0.1348±0.0012 mole fraction | Mole fraction solubility ([1]; ChCl – TEG 1:2 + water, x*DES 0.8, 35°C): 0.1803±0.0006 mole fraction | Mole fraction solubility ([1]; ChCl – TEG 1:2 + water, x*DES 0.8, 40°C): 0.2401±0.0023 mole fraction | Mole fraction solubility ([1]; ChCl – TEG 1:2 + water, x*DES 0.9, 30°C): 0.1368±0.0008 mole fraction | Mole fraction solubility ([1]; ChCl – TEG 1:2 + water, x*DES 0.9, 35°C): 0.1857±0.0007 mole fraction | Mole fraction solubility ([1]; ChCl – TEG 1:2 + water, x*DES 0.9, 40°C): 0.2507±0.0018 mole fraction | Mole fraction solubility ([1]; ChCl – TEG 1:2, x*DES 1.0 (neat DES), 25°C): 0.0997±0.0009 mole fraction | Mole fraction solubility ([1]; ChCl – TEG 1:2, x*DES 1.0 (neat DES), 30°C): 0.1304±0.0012 mole fraction | Mole fraction solubility ([1]; ChCl – TEG 1:2, x*DES 1.0 (neat DES), 35°C): 0.1773±0.0014 mole fraction | Mole fraction solubility ([1]; ChCl – TEG 1:2, x*DES 1.0 (neat DES), 40°C): 0.2433±0.0022 mole fraction | Increase in the solubility compared to the neat DES ([1]; ChCl-TEG 1:2, x*DES = 0.9 (xwater = 0.1), 25 °C): 6% | Solubility increase between 25 °C and 40 °C ([1]; neat DES (x*DES = 1.0) involving betaine (Bet-GLY 1:2)): 205% | Solubility increase between 25 °C and 40 °C ([1]; neat DES (x*DES = 1.0) with choline chloride (ChCl-TEG 1:2)): 244% | Mole fraction solubility ([2]; neat DES Bet - DEG, HBA:HBD molar ratio 1:1, 25 °C): 0.0490±0.0005 mole fraction | Mole fraction solubility ([2]; neat DES Bet - DEG, HBA:HBD molar ratio 1:2, 25 °C): 0.0639±0.0004 mole fraction | Mole fraction solubility ([2]; neat DES Bet - DEG, HBA:HBD molar ratio 1:4, 25 °C): 0.0575±0.0005 mole fraction | Mole fraction solubility ([2]; neat DES Bet - ETG, HBA:HBD molar ratio 1:1, 25 °C): 0.0323±0.0004 mole fraction | Mole fraction solubility ([2]; neat DES Bet - ETG, HBA:HBD molar ratio 1:2, 25 °C): 0.0351±0.0002 mole fraction | Mole fraction solubility ([2]; neat DES Bet - GLY, HBA:HBD molar ratio 1:1, 25 °C): 0.0670±0.0005 mole fraction | Mole fraction solubility ([2]; neat DES Bet - GLY, HBA:HBD molar ratio 1:2, 25 °C): 0.0898 mole fraction | Mole fraction solubility ([2]; neat DES Bet - GLY, HBA:HBD molar ratio 1:2, 25 °C, listed as coumaric acid): 0.0898±0.0003 mole fraction | Mole fraction solubility ([2]; neat DES Bet - GLY, HBA:HBD molar ratio 1:4, 25 °C): 0.0739±0.0004 mole fraction | Mole fraction solubility ([2]; neat DES Bet - TEG, HBA:HBD molar ratio 1:1, 25 °C): 0.0648±0.0006 mole fraction | Mole fraction solubility ([2]; neat DES Bet - TEG, HBA:HBD molar ratio 1:2, 25 °C): 0.0894±0.0005 mole fraction | Mole fraction solubility ([2]; neat DES Bet - TEG, HBA:HBD molar ratio 1:4, 25 °C): 0.0778±0.0005 mole fraction | Mole fraction solubility ([2]; neat DES ChCl - DEG, HBA:HBD molar ratio 1:1, 25 °C): 0.0644±0.0004 mole fraction | Mole fraction solubility ([2]; neat DES ChCl - DEG, HBA:HBD molar ratio 1:2, 25 °C): 0.0775±0.0005 mole fraction | Mole fraction solubility ([2]; neat DES ChCl - ETG, HBA:HBD molar ratio 1:1, 25 °C): 0.0387±0.0004 mole fraction | Mole fraction solubility ([2]; neat DES ChCl - ETG, HBA:HBD molar ratio 1:2, 25 °C): 0.0470±0.0003 mole fraction | Mole fraction solubility ([2]; neat DES ChCl - ETG, HBA:HBD molar ratio 1:4, 25 °C): 0.0411±0.0004 mole fraction | Mole fraction solubility ([2]; neat DES ChCl - TEG, HBA:HBD molar ratio 1:2, 25 °C): 0.0997 mole fraction
SMILES: O=C(O)C=Cc1ccc(O)cc1 [p-coumaric acid, 4-hydroxycinnamic acid]
Mole fraction solubility ([1]; ChCl – TEG 1:2 + water, x*DES 0.9, 25°C): 0.1054 mole fraction and 0.1054±0.0008 mole fraction
